Tested on: arterial thrombosis in the guinea-pig
Assay: arterial thrombosis test in the guinea-pig (cyclic flow reductions after carotid artery lesion)
Type: in vivo
Details: aspirin 2 mg/kg i.v. alone; not different from control animals
Description: This test is based on the model initially described by Roux et al. (Thromb Haemost 71: 252-256, 1994). The guinea-pigs are anaesthetised using ketamine+xylazine (90+12) mg.kg i.m.. The trachea is cannulated and spontaneous respiration by the animals maintained. The jugular vein is cannulated, allowing the intravenous administration of the compounds being tested. The carotid artery is isolated, and a Doppler probe is installed allowing the arterial blood flow to be measured. After stabilisation, a lesion to the artery wall is produced by means of a clip applied distally to the Doppler probe. Subsequent to that lesion, the blood flow decreases. When the flow reaches zero, the artery is lightly shaken, which allows the flow to be restored. The thrombosis process continues, leading again to the flow reducing and ceasing. The thrombotic phenomena accordingly result in cyclic flow reductions (CFR), which are observed over a period of 20 minutes. After that period, the animal is treated, or not, with compound (A), and the CFR are again observed for a period of 20 minutes. The experiments are carried out in control animals or in animals treated by the intravenous route with aspirin (2 mg/kg).
This study was carried out using the sodium salt of the (R) isomer of compound (A).

CC(=O)Oc1ccccc1C(=O)O [aspirin]
cyclic flow reductions (CFR): 8±1 CFR/20 min

— patent publication US20050143354A1, “Association of an antithrombotic and aspirin” (priority 2002, published 2005)
